Data taken from patent publication US20150352114A1, “MITOTIC KINESIN Eg5 INHIBITING ANTICANCER AGENTS” (THE CLEVELAND CLINIC FOUNDATION, priority 2014, published 2015).

What was measured:
GFP-positive tumor cells = test: Brain slice culture time-lapse cell migration, PDGF-IRES-GFP retrovirus glioma model; type: cell-based, rat; conditions: 200 nM
Protocol: The PDGF-IRES-GFP retrovirus was produced according to well known methods previously described. P3 neonatal Sprague-Dawley rats were anesthetized using hypothermia. Briefly, each pup was carefully wrapped in several layers of gauze and then covered with ice. After 12 minutes, the rat pup's head was placed in a DKI 963 Stereotaxic Alignment Instrument (David Kopf Instruments, Tujunga, Calif.). The bregma was identified and using a sterile 18 gauge needle a small hole was poked into the skull that was 1 mm rostral and 2 mm to the right of the bregma. A 27-gauge Hamilton microsyringe (Reno, Nev.) was then inserted to a depth of 1.5 mm, and 2 ul of virus was injected at a rate of 0.2 ul/min.
At days P8, P9, and P10, PDGF-IRES-GFP injected rat pups were anesthetized with Ketamine/Xylazine cocktail and decapitated. Brains were isolated and 300-um coronal sections were taken in the vicinity of the injection site using a McIlwain tissue chopper. The slices were transferred onto a porous 0.4-um culture plate insert (Millipore, Billerica, Mass.) and then placed into Glass Bottom 6 well plates (P06G-0-20-F, MatTek Corp, Ashland, Mass.) containing slice culture media (MEM, 2 mM L-glutamine, […], 10% Glucose, Its (Sigma, 12521) and Anti-Anti (Gibco, 15240-062)). Microglial and perivascular cells of the brain sections were stained with Isolectin GS-IB4, Alexa fluor 594 conjugate (Invitrogen) for 30 minutes at 37° C., washed three times with PBS and returned to a humidified atmosphere at 5% (CO2). Images of the brain slices for time-lapse microscopy were acquired with a Perkin Elmer UltraView Spinning Disk microscope on a Leica DMI 6000 with a 10× Plan Apo 0.4 NA objective lens. During imaging, the brain slices were placed in a stage mounted 37° C. incubator where 60% humidity and 5% CO2 was maintained. The emission range for 488 and 561 is […] and 580-650, respectively and acquisition and analysis were performed using Velocity software. The migratory path of the individual cells was then tracked every 7 minutes by marking the position of the cell body at consecutive time points.
Fluorescence, time-lapse image stacks consisting of ˜150 frames (7 minute intervals) were imported into Image-Pro Plus (v7.0, Media Cybernetics, Silver Spring, Md.). Gliomal cell tracking for each treatment group (55 cells/group) was performed in a semi-automated fashion using a combination of Fourier correlation and user-guided input. Cells selected for tracking were chosen randomly from the periphery of the tumor mass in each image stack. X and Y coordinates from each cell track were exported to Excel and translated such that each cell's track originated from a common origin (0,0). […] Mean-squared displacement for tracked cells in each group was analyzed using a persistent random-walk model (1,2). Speed (um/s) and persistence (min) were extracted using a non-linear least-squared regression to the model equation for each track and averaged for each treatment group.

[1] = tested on: GSCs from patient derived xenograft 08-387; test: Measurement of microtubule dynamics, EB1-EGFP; type: cell-based, human; conditions: 200 nM; 7 hours
Protocol: GSCs from patient derived xenograft 08-387 were cultured in Neurobasal Media, as previously described. Cells were plated on tissue culture dishes coated with GelTrex (Gibco®, Life Technologies, Carslbad, Calif.) and transfected with EB1-EGFP plasmid using FuGene® HD transfection reagent (Promega Corporation, Madison, Wis.) in a 3:1 (FuGene:DNA) ratio. Cells were transferred to GelTrex-coated 35 mm No. 1.5 glass MatTek dishes (MatTek Corporation, Ashland, Mass.) at a density of 50,000 cells per dish 48 hours following transfection, and allowed to adhere overnight prior to imaging. Dynamics measurements were obtained at 30 minutes and 7 hours following addition of vehicle (DMSO) or ispinesib (200 nM) to cell culture media.
Streaming time-lapse images of EB1-EGFP-expressing cells were acquired at 300 ms per frame for 1 minute (200 total frames) at using a Nikon TiE epifluorescence microscope (Nikon Instruments Inc., Melville, N.Y.) equipped with a Zyla 5.5 sCMOS camera (Andor Technology Ltd., Belfast, Ireland) under control of NIS Elements software (Nikon). Fluorescence illumination during imaging was provided by a SpectraX Light Engine® (Lumencor Inc., Beaverton, Oreg.) and a GFP/mCherry filter set (Chroma Technology Corp., Bellows Falls, Vt.). […]

08-387 GSCs [2] = test: Wound assay, tubulin immunofluorescence; type: cell-based, human; conditions: 200 nM; 6 hours
Protocol: Interphase enriched 08-387 GSCs were seeded within two-well culture inserts (ibidi, Verona, Wis.) at 2×10^5 cells per ml in triplicate (final volume of 80 μl per well) onto Geltrex coated glass bottom 6 well pates (MatTek Corp., Ashland, Mass.). After 2 hours, the insert was removed and cells were exposed to vehicle or 200 nM ispinesib. 6 hours later, cells were fixed and processed for immunofluorescence as described for atubulin. 20 Z-stack images at the wound edge were captured per condition using the 40× objective on a Leica DMI6000 inverted microscope. Images were then exported aa tif files using Velocity software (Mountain View, Calif.) and analyzed in ImageJ (NIH, Bethesda, Md.). Regions of interest were drawn for the primary cell layer at the wound edge for 3 independent scans per Z-stack representing the top, middle and bottom portion of the cell layer and pixel intensity and area measured.

08-387 GSCs [3] = test: Cytoskeleton Phospho Antibody Array; type: cell-based, human; conditions: 200 nM; 7 hours
Protocol: 08-387 GSCs were enriched in G1 as described. Cells were then exposed to vehicle or ispinesib (200 nM) for 7 hours. Following treatment, cells were pelleted and snap frozen in liquid nitrogen before shipping to Full Moon Biosystems for processing to probe a Cytoskeleton Phospho Antibody Array containing 141 highly specific cytoskeleton related antibodies (Sunnyvale, Calif.).

[4] = Persistent Random Walk model fit

**Q.** How did the “tumor dispersion (Wind Rose plots, MSD)” value (GFP-positive tumor cells) turn out when `Cc1ccc(C(=O)N(CCCN)[C@@H](c2nc3cc(Cl)ccc3c(=O)n2Cc2ccccc2)C(C)C)cc1` [ispinesib, N-(3-amino-propyl)-n-[R-1-(3-benzyl-7-choloro-4-oxo-3,4-dihydroquinazolin-2-yl)-2-methyl-propyl]-4-methyl-benzamide methanesulfonate] was run?
**A.** The value was “clear reduction in tumor dispersion”.

**Q.** And the “reduction in mean squared displacement” value (GFP-positive tumor cells; versus control)?
**A.** Its value is “approximately four-fold”.

**Q.** And the “reduction of cell velocity” value (GFP-positive tumor cells; versus control)?
**A.** The value was “approximately two-fold”.

**Q.** What about the cell velocity (GFP-positive tumor cells; [4]) of the same molecule?
**A.** The cell velocity was 11.3±0.2 μm/hr.

**Q.** And the persistence time (GFP-positive tumor cells; [4])?
**A.** The persistence time was 2.3 ± 0.1 h.

**Q.** And the EB1 comet velocity [1]?
**A.** The EB1 comet velocity was “significant increase”.

**Q.** And the microtubule growth times [1]?
**A.** Its microtubule growth times is “reduced microtubule growth times”.

**Q.** What about the “polymerized tubulin at wound edge” value (08-387 GSCs [2]) of the same molecule?
**A.** Its value is “significant decrease in polymerized tubulin”.

**Q.** What about the “phosphorylation of 141 cytoskeleton proteins” value (08-387 GSCs [3]) of the same molecule?
**A.** Its value is “no significant changes in phosphorylation”.
